# Patent US9333234B2, “Combination of somatostatin-analogs with 11beta-hydroxylase inhibitors” (Novartis AG, priority 2012, dated 2016)
# Like-named read-outs stand apart in the source and are kept apart here. Numbered stars: 1 amine (or outer) side, 2 acyl side, 3 side chain; on linkers, the order of the positions; unused ones are H or OH. Square brackets hold non-standard residues; d marks the D form. Side chains are listed from the residue outwards. Peptide text beside a SMILES is read from it. * marks the point of attachment. Ethylenediamine = C(CN[*:2])N[*:1]; Hyp = O=C(O)[C@@H]1C[C@@H](O)CN1; Phg = N[C@H](C(=O)O)c1ccccc1; CO = O=C([*:1])[*:2]; Bn = c1ccc(C*)cc1
# Legend:
# Wistar Hannover rats = type: in vivo; settings: for Serum corticosterone, Change from Control (%): Female rats; for Effects on serum corticosterone (PD marker), in words: compared to control
# Source text: Another group of rats (10/sex) received daily doses of Ultrapure water, by oral gavage, and the Acetate buffered solution pH 4.5 for injection USP, by subcutaneous injection, and served as controls.
# Study activities included clinical examinations, involving twice daily exams for mortality and signs of ill health or reaction to treatment, daily pre-dose and 1-hour post dose cage-side observations, weekly detailed examination, body weights and food consumption, two ophthalmic examinations (pretreatment and week 13), clinical pathology (hematology, coagulation and clinical biochemistry, urinalysis) and immunology at the end of dosing (Adrenocorticotropic hormone, Corticosterone, Growth hormone, Insulin-like growth factor and urinalysis for Corticosterone). […] Post mortem evaluation included macroscopic observations, organ weight assessments (absolute and relative to body) and microscopic examinations.
# [1] = system: patients with Cushing's disease
# Experimental: Dose escalation was planned every 2 weeks to 5, 10, 20 and 50 mg bid until UFC normalized, in which case the dose was maintained until day 70, when treatment stopped. Dose reduction for tolerability was permitted. UFC was assessed on the penultimate day of each 2-week period. Patients were monitored until day 84. The primary endpoint was UFC≦ULN or a ≧50% decrease from baseline at day 70 using the mean of 3 UFC samples collected during the week before day 70.
# [2] = Solubility profile, excess solids equilibrated in each solvent; type: physicochemical
# Experimental: Excess solids were equilibrated in each solvent for over 24 hours at 25° C.±0.1. Concentration in supernatant was measured by gravimetry for organic solvents and by HPLC from aqueous solvents and propylene glycol.
# [3] = Solubility and stability in water at 0.1% target concentration, 50° C.; type: physicochemical; settings: for stability / behaviour in water: 2 days at 50° C.
# [4] = Hygroscopicity, sorption/desorption isotherms (VTI 100 humidity microbalance); type: physicochemical; settings: 25° C.
# Experimental: Sorption/desorption isotherms were measured using the VTI 100 humidity microbalance (VTI Corporation, Hialeah, Fla., USA). Measurements were carried out at 25° C. Samples were dried under N2 flow at 25° C.
# [5] = system: Cushing's disease patients; settings: Colao et al. N Engl J Med 2012; 366:32-42; cited from earlier work
# [6] = Female rats (n = 10), dose 20/— (COMPOUND A 20 mg/kg/day alone)
# [7] = Male rats (n = 10), dose 20/— (COMPOUND A 20 mg/kg/day alone)
# [8] = of the 9 patients who completed the active treatment phase
# [9] = patients with Cushing's disease
# [10] = Female rats (n = 10), dose —/0.3 (SOM230 0.3 mg/kg/day alone)
# [11] = Male rats (n = 10), dose —/0.3 (SOM230 0.3 mg/kg/day alone)
structure (smiles),measurement,setting,value
"N#Cc1ccc([C@H]2CCc3cncn32)c(F)c1 [Compound A, (R)-4-(6,7-Dihydro-5H-pyrrolo[1,2-c]imidazol-5-yl)-3-fluoro-benzonitrile]",Absolute adrenal weights,Wistar Hannover rats; [6],0.07002 g
same,Mean serum corticosterone level,Wistar Hannover rats; [6],166.76
same,"Serum corticosterone, Change from Control (%)",Wistar Hannover rats; dose 20/— (COMPOUND A 20 mg/kg/day alone),−36%
same,Absolute adrenal weights,Wistar Hannover rats; [7],0.04969 g
same,Mean serum corticosterone level,Wistar Hannover rats; [7],221.83
same,adrenalcortical hypertrophy,Wistar Hannover rats; female rats,produced adrenalcortical hypertrophy
same,"Effects on serum corticosterone (PD marker), in words",Wistar Hannover rats; rats,decreases in serum corticosterone in females only
same,"Effects on adrenal gland organ weights, in words","Wistar Hannover rats; rats, more pronounced in females",increased adrenal gland organ weights
same,"ACTH level doubled, share of patients",[1]; 10-week trial,half of the patients
same,effect on urinary free cortisol (UFC),[1]; 10-week trial,successfully reduced urinary free cortisol (UFC) in all patients
same,adverse event fatigue (patients),[1]; 12 patients enrolled,7/12
same,adverse event headache (patients),[1]; 12 patients enrolled,3/12
same,adverse event nausea (patients),[1]; 12 patients enrolled,4/12
same,patients with ACTH levels >2× baseline,[1]; 12 patients enrolled,Five
same,patients with study drug-related hypokalemia (K+<3.5 mmol/L),[1]; 12 patients enrolled,Four
same,mean SBP decrease from baseline,[1]; day 70,13.1 mmHg
same,patients with UFC >ULN after treatment discontinuation,[1]; measurements at day 84,6 patients
same,patients achieving primary endpoint (UFC≦ULN or ≧50% decrease from baseline at day 70),[1]; [8],9 patients
same,patients with normal UFC levels on day 70,[1]; [8],8 patients
same,patients with normal UFC levels on at least one assessment during the study,"[1]; oral, 2-50 mg bid dose escalation",11 of 11
same,efficacy conclusion,[1]; [9],demonstrated efficacy
same,tolerability / safety profile,[1]; [9],satisfactory safety profile
same,tolerability / safety profile,"[1]; patients with Cushing's disease, listed as COMPOUND A",generally well tolerated
same,Solubility,"[2]; Ethanol, over 24 hours at 25° C.",>50 mg/mL
same,Solubility,"[2]; Ethyl Acetate, over 24 hours at 25° C.",>50 mg/mL
same,Solubility,"[2]; organic solvent or mixture, thermodynamic from solid, Acetone, over 24 hours at 25° C., read-out: Solubility",> 50 mg/mL
same,Solubility,"[2]; simulated gastric fluid, thermodynamic from solid, pH 1, over 24 hours at 25° C., read-out: Solubility",> 50 mg/mL
same,solubility in water at the 0.1% target concentration,[3],largely insoluble
same,stability / behaviour in water,[3],converted from a free flowing solid into an oily material
"N#Cc1ccc([C@H]2CCc3cncn32)c(F)c1.O=P(O)(O)O [Phosphate salt, Phosphate Salt of 4-(R)-6,7-dihydro-5H-pyrrolo[1,2-c]imidazol-5-yl-3-fluoro-benzonitrile (Form A)]",Solubility,"[2]; Water, over 24 hours at 25° C.",>50 mg/mL
same,Solubility,"[2]; pH 1, over 24 hours at 25° C.",>50 mg/mL
same,Solubility,"[2]; pH 6.8, over 24 hours at 25° C.",>50 mg/mL
same,"hygroscopicity, water uptake",[4]; 5% RH,0%
same,"hygroscopicity, water uptake",[4]; 75% relative humidity,0.9%
same,solubility in water at the 0.1% target concentration,[3],soluble
same,stability / behaviour in water,[3],stable
"NCCCC[C@@H]1NC(=O)[C@@H](Cc2c[nH]c3ccccc23)NC(=O)[C@H](c2ccccc2)NC(=O)[C@@H]2C[C@@H](OC(=O)NCCN)CN2C(=O)[C@H](Cc2ccccc2)NC(=O)[C@H](Cc2ccc(OCc3ccccc3)cc2)NC1=O [SOM230, cyclo[{4-(NH2—C2H4—NH—CO—O-)Pro}-Phg-DTrp-Lys-Tyr(4-Bzl)-Phe], reference compound] (cyclo([Hyp]([CO-Ethylenediamine])[Phg][dW]KY(Bn)F))",Absolute adrenal weights,Wistar Hannover rats; [10],0.04585 g
same,Mean serum corticosterone level,Wistar Hannover rats; [10],190.56
same,Relative adrenal weight (% of body weight),Wistar Hannover rats; [10],0.02432 % of body weight
same,"Serum corticosterone, Change from Control (%)",Wistar Hannover rats; dose —/0.3 (SOM230 0.3 mg/kg/day alone),−27%
same,Absolute adrenal weights,Wistar Hannover rats; [11],0.03615 g
same,Mean serum corticosterone level,Wistar Hannover rats; [11],233.68
same,Relative adrenal weight (% of body weight),Wistar Hannover rats; [11],0.01326 % of body weight
same,"Effects on serum corticosterone (PD marker), in words",Wistar Hannover rats; rats,decreases in serum corticosterone in females only
same,cortisol levels in Cushing's disease patients,[5],significant decrease of cortisol levels
